Values quoted from earlier work, collected in US11517522B2, “Aprepitant ready-to-use injection emulsion compositions” (priority 2020, dated 2022).

How the values were obtained:
[1] = given orally; commercial nanoparticulate composition (Emend)
[2] = IV infusion
[3] = tested on: acute and delayed chemotherapy-induced nausea and vomiting; settings: versus aprepitant

| solubility in acetonitrile (acetonitrile) | solubility in ethanol (ethanol) | solubility in isopropyl acetate (isopropyl acetate) | solubility in water (water) | bioavailability [1] | SMILES | time for conversion to aprepitant [2] | comparison with aprepitant in prevention and control of acute and delayed chemotherapy-induced nausea and vomiting [3] |
| --- | --- | --- | --- | --- | --- | --- | --- |
| slightly soluble | sparingly soluble | sparingly soluble | practically insoluble | 60-65% | C[C@@H](O[C@H]1OCCN(Cc2n[nH]c(=O)[nH]2)[C@H]1c1ccc(F)cc1)c1cc(C(F)(F)F)cc(C(F)(F)F)c1 [Aprepitant, 5-([(2R, 3S)-2-((R)-1-[3,5-bis (trifluoromethyl)phenyl]ethoxy)-3-(4-fluoro-phenyl)morpholino]methyl)-1H-1,2,4-triazol-3(2H)-one] | – | – |
| – | – | – | – | – | C[C@@H](O[C@H]1OCCN(Cc2nc(O)n(P(=O)(O)O)n2)[C@H]1c1ccc(F)cc1)c1cc(C(F)(F)F)cc(C(F)(F)F)c1 [Fosaprepitant, fosaprepitant dimeglumine] | less than 30 minutes | non-inferiority and bioequivalency |
